{
  "source": "patent US20230365933A1",
  "about": "“COMPOSITIONS AND METHODS FOR INCREASING STEM CELL FUNCTION” (SOCIETE DES PRODUITS NESTLE S.A., priority 2020, published 2023)",
  "key": {"[1]": {"tested_on": "murine HSCs (LKS CD150+CD48−)", "experiment": "Mitochondrial membrane potential by TMRM staining and flow cytometry in cultured mHSCs", "format": "cell-based, mouse", "settings": "compared to Basal condition; NR 500 uM, Vit B12 (MC) 100 uM; day 3 of culture", "protocol": "Flow cytometry analysis was performed on freshly isolated bone marrow (BM) from C57BI6 mice. BM was extracted from crushed femora and tibia. Cell suspension was filtered through a 70 μm cell strainer and erythroid cells were eliminated by incubation with red blood cell lysis buffer (eBioscences). Isolation and stains were performed in ice-cold PBS 1 mM EDTA. Lineage positive cells were then removed with a magnetic lineage depletion kit (BD biosciences). Cell suspensions were then stained with specific antibodies for the stem cell compartment and sorted by FACS (BD FACS Aria III) into 1.5 ml Eppendorf tubes.\nThe following antibodies were used in this study: rat mAbs against cKit (2B8), Sca1 (D7), CD150 (TC-15-12F12.2), CD48 (HM48-1). The antibodies were purchased from Biolegend, eBiosciences and BD. A mixture of biotinylated mAbs against CD3, CD11b, CD45R/B220, Ly-6G, Ly-6C and TER-119 was used as lineage marker (“lineage cocktail”) and was purchased from BD. DAPI or propidium iodine (PI) staining was used for live/dead cell discrimination.\nMurine HSCs were sorted into 1.5 ml Eppendorf tubes and were cultured in Stemline II (SIGMA) supplemented with 100 ng/ml SCF (R&D) and 2 ng/ml Flt3 (R&D). This was defined as the basal condition. Different concentrations as indicated of NR and Vit B12 (MC) were added in specific wells. NR was supplemented every 24 hours.\nMouse HSCs already in culture were incubated at 37° C. for 1 hour with 200 nM tetramethylrhodamine methyl ester (TMRM; Invitrogen) and 100 nM Mitotracker green. Cells were then washed with FACS buffer and analysed by flow cytometry on a BD LSR II.\nFreshly FACS sorted mHSCs (LKS CD150+CD48−) were cultured in basal media (Stemline+SCF+FLT3L) supplemented with UroA, NR and MC in specific wells (as indicated). Cells were harvested at day 3 and stained with tetramethylrhodamine methyl ester (TMRM; to measure mitochondria membrane potential) and Mitotracker (to measure mitochondrial mass), and analysed by flow cytometry."}, "human HSCs": {"tested_on": "human HSCs", "settings": "culture media supplemented with nicotinamide riboside, primary and secondary recipient humanised mice; cited from earlier work"}},
  "note": "“Also recorded” adds a separate entry of the source.",
  "data": [
    {"smiles": "C/C1=C2/[N-][C@H]([C@H](CC(N)=O)[C@@]2(C)CCC(=O)NC[C@@H](C)OP(=O)([O-])O[C@H]2[C@@H](O)[C@@H](n3cnc4cc(C)c(C)cc43)O[C@@H]2CO)[C@]2(C)N=C(/C(C)=C3N=C(/C=C4N=C1[C@@H](CCC(N)=O)C\\4(C)C)[C@@H](CCC(N)=O)[C@]\\3(C)CC(N)=O)[C@@H](CCC(N)=O)[C@]2(C)CC(N)=O.[CH3-].[Co]", "note": "[MC, methylcobalamine]", "values": [
      {"measurement": "TMRM fluorescent intensity (Mean Fluorescence Intensity, MFI)", "setting": "[1]", "result": "significantly decreased; also recorded: decreases"},
      {"measurement": "proportion of cells in the TMRM low gate", "setting": "[1]", "result": "significantly increased; also recorded: increases"}
    ]},
    {"smiles": "NC(=O)c1ccc[n+]([C@@H]2O[C@H](CO)[C@@H](O)[C@H]2O)c1", "note": "[NR, Nicotinamide riboside]", "values": [
      {"measurement": "levels of engraftment", "setting": "human HSCs", "result": "significantly higher levels of engraftment"},
      {"measurement": "long-term blood production", "setting": "human HSCs", "result": "capable of sustaining long-term blood production"},
      {"measurement": "TMRM fluorescent intensity (Mean Fluorescence Intensity, MFI)", "setting": "[1]", "result": "significantly decreased; also recorded: decreases"},
      {"measurement": "proportion of cells in the TMRM low gate", "setting": "[1]", "result": "significantly increased; also recorded: increases"}
    ]}
  ]
}
